Test results taken from article PMC6280375 (The Journal of Venomous Animals and Toxins Including …, 2018).

Tested on: BjussuLAAO-II
Settings: read-out: Km (mM) / Mean ± SD; 0.1 M HEPES pH 7, 45 °C, 2 mM OPD, 1 U/mL HRP

| SMILES | Km [mM] |
| --- | --- |
| N[C@@H](Cc1ccc(O)cc1)C(=O)O [Tyr] | 1.1 ± 0.1 |
| CC[C@H](C)[C@H](N)C(=O)O [Ile] | 2 ± 0.1 |
| CSCC[C@H](N)C(=O)O [Met] | 0.6 ± 0.1 |
| NC(=O)CC[C@H](N)C(=O)O [Gln] | 3.2 ± 0.3 |
| N[C@@H](Cc1ccccc1)C(=O)O [Phe] | 0.1 |
| CC(C)C[C@H](N)C(=O)O [Leu] | 0.3 |
| N[C@@H](Cc1cnc[nH]1)C(=O)O [His] | 14.1 ± 1.9 |
